According to ChEMBL document CHEMBL3797052 (Eur J Med Chem, 2016):

Tested on: not listed separately
Assay: Antiproliferative activity against human RXF393 cells assessed as cell growth at 10^-4 M after 48 hrs by sulforhodamine B assay
Format: functional
Conditions: RXF 393, 48 h, read-out: Activity

| SMILES | growth at 100 µM |
| --- | --- |
| CNC(=O)c1cc(Oc2ccc3nc(NC(=O)Nc4ccc(Cl)c(C(F)(F)F)c4)sc3c2)ccn1 | -78% |

Tested on: not listed separately
Assay: Antiproliferative activity against human DU145 cells assessed as cell growth at 10^-6 M after 48 hrs by sulforhodamine B assay
Format: functional
Conditions: DU-145, 48 h, read-out: Activity

| SMILES | growth at 1 µM |
| --- | --- |
| CNC(=O)c1cc(Oc2ccc3nc(NC(=O)Nc4ccc(Cl)c(C(F)(F)F)c4)sc3c2)ccn1 | 82% |

Tested on: NCI-H522
Assay: Antiproliferative activity against human NCI-H522 cells assessed as cell growth at 10^-4 M after 48 hrs by sulforhodamine B assay
Format: functional
Conditions: NCI-H522, 48 h, read-out: Activity

| SMILES | growth at 100 µM |
| --- | --- |
| CNC(=O)c1cc(Oc2ccc3nc(NC(=O)Nc4ccc(Cl)c(C(F)(F)F)c4)sc3c2)ccn1 | 23% |

Tested on: not listed separately
Assay: Antiproliferative activity against human PC3 cells assessed as cell growth at 10^-8 M after 48 hrs by sulforhodamine B assay
Format: functional
Conditions: PC-3, 48 h, read-out: Activity

| SMILES | growth at 0.01 µM |
| --- | --- |
| CNC(=O)c1cc(Oc2ccc3nc(NC(=O)Nc4ccc(Cl)c(C(F)(F)F)c4)sc3c2)ccn1 | 92% |

Tested on: not listed separately
Assay: Antiproliferative activity against human Hs 578T cells assessed as cell growth at 10^-7 M after 48 hrs by sulforhodamine B assay
Format: functional
Conditions: read-out: Activity

| SMILES | growth at 0.1 µM |
| --- | --- |
| CNC(=O)c1cc(Oc2ccc3nc(NC(=O)Nc4ccc(Cl)c(C(F)(F)F)c4)sc3c2)ccn1 | 89% |

Tested on: Malme-3M
Assay: Antiproliferative activity against human MALME-3M cells assessed as cell growth at 10^-8 M after 48 hrs by sulforhodamine B assay
Format: functional
Conditions: read-out: Activity

| SMILES | growth at 0.01 µM |
| --- | --- |
| CNC(=O)c1cc(Oc2ccc3nc(NC(=O)Nc4ccc(Cl)c(C(F)(F)F)c4)sc3c2)ccn1 | 104% |

Tested on: SK-MEL-5
Assay: Antiproliferative activity against human SK-MEL-5 cells assessed as cell growth at 10^-8 M after 48 hrs by sulforhodamine B assay
Format: functional
Conditions: SK-MEL-5, 48 h, read-out: Activity

| SMILES | growth at 0.01 µM |
| --- | --- |
| CNC(=O)c1cc(Oc2ccc3nc(NC(=O)Nc4ccc(Cl)c(C(F)(F)F)c4)sc3c2)ccn1 | 93% |

Tested on: ACHN
Assay: Antiproliferative activity against human ACHN cells assessed as growth inhibition after 48 hrs by sulforhodamine B assay
Format: functional
Conditions: not given

| SMILES | GI50 | LC50 | TGI |
| --- | --- | --- | --- |
| CNC(=O)c1cc(Oc2ccc3nc(NC(=O)Nc4ccc(Cl)c(C(F)(F)F)c4)sc3c2)ccn1 | 1.85 µM | 7.82 µM | 3.8 µM |

Tested on: MDA-MB-468
Assay: Antiproliferative activity against human MDA-MB-468 cells assessed as cell growth at 10^-4 M after 48 hrs by sulforhodamine B assay
Format: functional
Conditions: MDA-MB-468, 48 h, read-out: Activity

| SMILES | growth at 100 µM |
| --- | --- |
| CNC(=O)c1cc(Oc2ccc3nc(NC(=O)Nc4ccc(Cl)c(C(F)(F)F)c4)sc3c2)ccn1 | -43% |

Tested on: EKVX
Assay: Antiproliferative activity against human EKVX cells assessed as cell growth at 10^-8 M after 48 hrs by sulforhodamine B assay
Format: functional
Conditions: read-out: Activity

| SMILES | growth at 0.01 µM |
| --- | --- |
| CNC(=O)c1cc(Oc2ccc3nc(NC(=O)Nc4ccc(Cl)c(C(F)(F)F)c4)sc3c2)ccn1 | 97% |

Tested on: not listed separately
Assay: Antiproliferative activity against human MOLT4 cells assessed as cell growth at 10^-7 M after 48 hrs by sulforhodamine B assay
Format: functional
Conditions: MOLT-4, 48 h, read-out: Activity

| SMILES | growth at 0.1 µM |
| --- | --- |
| CNC(=O)c1cc(Oc2ccc3nc(NC(=O)Nc4ccc(Cl)c(C(F)(F)F)c4)sc3c2)ccn1 | 105% |

Tested on: EKVX
Assay: Antiproliferative activity against human EKVX cells assessed as cell growth at 10^-6 M after 48 hrs by sulforhodamine B assay
Format: functional
Conditions: read-out: Activity

| SMILES | growth at 1 µM |
| --- | --- |
| CNC(=O)c1cc(Oc2ccc3nc(NC(=O)Nc4ccc(Cl)c(C(F)(F)F)c4)sc3c2)ccn1 | 82% |

Tested on: MDA-MB-435
Assay: Antiproliferative activity against human MDA-MB-435 cells assessed as growth inhibition after 48 hrs by sulforhodamine B assay
Format: functional
Conditions: MDA-MB-435, 48 h

| SMILES | GI50 |
| --- | --- |
| CNC(=O)c1cc(Oc2ccc3nc(NC(=O)Nc4ccc(Cl)c(C(F)(F)F)c4)sc3c2)ccn1 | 1.9 µM |

Same assay, conditions: MDA-MB-435, 48 h, read-out: LC50 (the source's name)

| SMILES | CC50 |
| --- | --- |
| CNC(=O)c1cc(Oc2ccc3nc(NC(=O)Nc4ccc(Cl)c(C(F)(F)F)c4)sc3c2)ccn1 | > 100 µM |

Tested on: not listed separately
Assay: Antiproliferative activity against human SW620 cells assessed as cell growth at 10^-7 M after 48 hrs by sulforhodamine B assay
Format: functional
Conditions: SW-620, 48 h, read-out: Activity

| SMILES | growth at 0.1 µM |
| --- | --- |
| CNC(=O)c1cc(Oc2ccc3nc(NC(=O)Nc4ccc(Cl)c(C(F)(F)F)c4)sc3c2)ccn1 | 101% |

Tested on: not listed separately
Assay: Antiproliferative activity against human SF539 cells assessed as cell growth at 10^-8 M after 48 hrs by sulforhodamine B assay
Format: functional
Conditions: SF-539, 48 h, read-out: Activity

| SMILES | growth at 0.01 µM |
| --- | --- |
| CNC(=O)c1cc(Oc2ccc3nc(NC(=O)Nc4ccc(Cl)c(C(F)(F)F)c4)sc3c2)ccn1 | 97% |

Tested on: not listed separately
Assay: Antiproliferative activity against human UO31 cells assessed as growth inhibition after 48 hrs by sulforhodamine B assay
Format: functional
Conditions: UO-31, 48 h

| SMILES | GI50 |
| --- | --- |
| CNC(=O)c1cc(Oc2ccc3nc(NC(=O)Nc4ccc(Cl)c(C(F)(F)F)c4)sc3c2)ccn1 | 2.17 µM |

Target: RAF proto-oncogene serine/threonine-protein kinase (Homo sapiens, UniProt P04049)
Sequence (P04049 whole entry): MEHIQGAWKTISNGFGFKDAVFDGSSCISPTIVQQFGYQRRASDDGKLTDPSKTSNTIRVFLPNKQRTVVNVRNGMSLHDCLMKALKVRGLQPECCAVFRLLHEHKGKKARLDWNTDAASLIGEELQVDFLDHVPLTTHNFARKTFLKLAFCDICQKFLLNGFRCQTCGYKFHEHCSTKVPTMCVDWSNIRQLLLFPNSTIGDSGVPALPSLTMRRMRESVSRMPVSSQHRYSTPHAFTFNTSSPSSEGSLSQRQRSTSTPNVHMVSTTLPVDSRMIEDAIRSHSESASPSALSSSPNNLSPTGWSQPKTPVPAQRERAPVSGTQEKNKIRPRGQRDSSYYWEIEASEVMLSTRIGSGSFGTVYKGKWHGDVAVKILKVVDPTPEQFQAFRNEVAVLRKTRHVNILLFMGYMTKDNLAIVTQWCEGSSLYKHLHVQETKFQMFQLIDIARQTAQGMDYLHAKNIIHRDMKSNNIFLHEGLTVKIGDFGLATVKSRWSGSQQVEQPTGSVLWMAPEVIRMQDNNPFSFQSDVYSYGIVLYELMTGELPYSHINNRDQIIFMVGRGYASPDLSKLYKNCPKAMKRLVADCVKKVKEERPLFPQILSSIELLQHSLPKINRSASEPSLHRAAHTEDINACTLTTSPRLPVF
Assay: Inhibition of human CRAF at 10 uM measured after 40 mins by scintillation counting
Conditions: not given

| SMILES | inhibition |
| --- | --- |
| CNC(=O)c1cc(Oc2ccc3nc(NC(=O)Nc4ccc(Cl)c(C(F)(F)F)c4)sc3c2)ccn1 | 94.8% |

Tested on: not listed separately
Assay: Antiproliferative activity against human COLO205 cells assessed as cell growth at 10^-8 M after 48 hrs by sulforhodamine B assay
Format: functional
Conditions: COLO 205, 48 h, read-out: Activity

| SMILES | growth at 0.01 µM |
| --- | --- |
| CNC(=O)c1cc(Oc2ccc3nc(NC(=O)Nc4ccc(Cl)c(C(F)(F)F)c4)sc3c2)ccn1 | 98% |

Tested on: not listed separately
Assay: Antiproliferative activity against human OVCAR5 cells assessed as cell growth at 10^-6 M after 48 hrs by sulforhodamine B assay
Format: functional
Conditions: OVCAR-5, 48 h, read-out: Activity

| SMILES | growth at 1 µM |
| --- | --- |
| CNC(=O)c1cc(Oc2ccc3nc(NC(=O)Nc4ccc(Cl)c(C(F)(F)F)c4)sc3c2)ccn1 | 90% |
